Structures can show the parent of a compound that is named as a salt.
Experiments:
Format in all cases: cell-based
human GPR40 receptor = target: T1, human GPR40 receptor (Homo sapiens, UniProt O14842); test: Analysis of receptor activation - calcium ions concentration measurement (aequorin luminescence); conditions: enhancement or decrease of activity in relation to reference TAK-875, from EC50 values
T1 construct: host or cells: CHO-K1 (co-expressing aequorin)
Description: Experiment B1: Analysis of Receptor Activation—Calcium Ions Concentration Measurement.
As a result of the measurement, luminescence change in the time curve were obtained, the integration of which allowed to calculate the relative amount of calcium ions released to cytosol. […] Curves plotted from obtained results allowed to determine EC50 values.

[1] = system: MIN6 (mouse insulinoma) cells; test: Glucose-dependent insulin release in mouse insulinoma cells (MIN6); conditions: multiplicity of insulin efflux increase in relation to control; 10 uM compound, 20 mM glucose, 1 hour
Protocol: Experiment B2: Glucose-Dependent Insulin Release in Mouse Insulinoma Cells (MIN6).
MIN6 (mouse insulinoma) cells were seeded on a plate covered with PDL (poly-D-lysine) at 5×10^5/well and cultured for 48 hours. […] Tested compounds, after dilution to the concentration of 10-40 uM in KRBH buffer with the addition of 20 mM glucose, were added to the cells and incubated for 1 hour to induce insulin release. Negative control was KRBH buffer with the addition of 2 mM glucose. Concentration of released insulin was determined using ELISA test (Mercodia).
Table 4 present MIN6Insulin @10 uM values for representative compounds of the invention. MIN6Insulin @10 uM value is a multiplicity of insulin efflux increase in relation to control experiment, following addition of 10 uM of tested compound.

OAT2v1 = target: T2, OAT2v1 (Homo sapiens, UniProt Q9Y694); test: Uptake transporter inhibition assay, OAT2v1; conditions: HEK293 cells overexpressing transporter
T2 construct: host or cells: HEK293
T2 sequence (Q9Y694 1-546 isoform Q9Y694-2): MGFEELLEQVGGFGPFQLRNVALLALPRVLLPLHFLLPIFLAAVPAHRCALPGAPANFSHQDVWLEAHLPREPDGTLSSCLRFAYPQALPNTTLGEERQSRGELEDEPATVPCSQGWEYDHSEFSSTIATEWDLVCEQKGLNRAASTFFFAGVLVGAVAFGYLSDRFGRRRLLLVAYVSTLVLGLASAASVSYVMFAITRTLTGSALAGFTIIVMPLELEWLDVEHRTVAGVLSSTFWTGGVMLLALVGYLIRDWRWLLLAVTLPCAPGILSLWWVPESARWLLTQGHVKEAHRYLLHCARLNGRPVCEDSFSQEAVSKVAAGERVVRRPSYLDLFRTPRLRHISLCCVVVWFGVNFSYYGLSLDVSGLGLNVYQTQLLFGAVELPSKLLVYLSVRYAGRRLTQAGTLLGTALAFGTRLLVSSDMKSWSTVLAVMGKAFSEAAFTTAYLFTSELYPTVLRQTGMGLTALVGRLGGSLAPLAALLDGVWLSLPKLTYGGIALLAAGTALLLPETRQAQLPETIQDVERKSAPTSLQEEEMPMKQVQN
Protocol: (§1) Experiment B4: Bile Acid Transporters Inhibition in the Liver.
(§2) The compound was tested on a panel of 10 transporters: BSEP, MRP2, MRP3, MRP4 in a vesicular transport inhibition assay and NTCP, OAT1, OAT2v1, OATP1A2, OATP1B1, OATP1B3 in an uptake transporter inhibition assays.
(§3) Transporter uptake inhibition test was performed on mammal HEK293 cells overexpressing of a respective transporter. Cells were cultured at 37±1° C. and seeded on 96-well tissue culture plate at 1×10^5/well. Substrate was removed prior to experiment and cells were washed twice with 100 μl of respective buffer (HK pH 7.4 for OATP1B1 and HBSS pH 7.4 for NTCP, OAT1, OAT2v1, OATP1A2, and OATP1B3). Uptake studies were performed at 37±1° C. in 50 μl of respective buffer containing radioactively tagged substrate and tested compound or solvent.
(§4) After experiment cells were washed twice with 100 μl of ice-cold respective buffer and lysed with 50 μl of 0.1M NaOH. Transport of radioactively tagged substrate was determined by scintillation counter measurement.

OATP1B3 = target: T3, OATP1B3 (Homo sapiens, UniProt Q9NPD5); test: Uptake transporter inhibition assay, OATP1B3; conditions: HEK293 cells overexpressing transporter
T3 construct: host or cells: HEK293
T3 sequence (Q9NPD5 1-702): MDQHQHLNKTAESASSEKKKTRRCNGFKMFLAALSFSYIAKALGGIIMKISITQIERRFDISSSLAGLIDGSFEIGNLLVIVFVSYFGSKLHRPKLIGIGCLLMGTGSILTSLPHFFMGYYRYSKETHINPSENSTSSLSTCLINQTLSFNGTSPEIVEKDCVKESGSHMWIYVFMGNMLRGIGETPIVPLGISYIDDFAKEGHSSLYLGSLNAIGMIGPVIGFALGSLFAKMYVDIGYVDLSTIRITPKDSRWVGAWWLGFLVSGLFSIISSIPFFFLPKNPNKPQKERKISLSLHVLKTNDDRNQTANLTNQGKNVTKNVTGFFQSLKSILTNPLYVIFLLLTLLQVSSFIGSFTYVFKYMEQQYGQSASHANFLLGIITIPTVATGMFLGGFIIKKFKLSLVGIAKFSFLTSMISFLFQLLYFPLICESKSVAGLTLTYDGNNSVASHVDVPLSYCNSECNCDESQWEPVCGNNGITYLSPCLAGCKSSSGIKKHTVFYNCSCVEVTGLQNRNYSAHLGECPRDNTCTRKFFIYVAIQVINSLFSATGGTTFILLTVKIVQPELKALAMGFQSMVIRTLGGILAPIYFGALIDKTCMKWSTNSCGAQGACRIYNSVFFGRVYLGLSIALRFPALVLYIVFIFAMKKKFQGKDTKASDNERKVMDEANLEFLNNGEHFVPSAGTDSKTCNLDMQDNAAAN
Protocol: as §1, §2, §3, §4

NTCP = target: T4, NTCP (Homo sapiens, UniProt Q14973); test: Uptake transporter inhibition assay, NTCP; conditions: HEK293 cells overexpressing transporter
T4 construct: host or cells: HEK293
T4 sequence (Q14973 1-349): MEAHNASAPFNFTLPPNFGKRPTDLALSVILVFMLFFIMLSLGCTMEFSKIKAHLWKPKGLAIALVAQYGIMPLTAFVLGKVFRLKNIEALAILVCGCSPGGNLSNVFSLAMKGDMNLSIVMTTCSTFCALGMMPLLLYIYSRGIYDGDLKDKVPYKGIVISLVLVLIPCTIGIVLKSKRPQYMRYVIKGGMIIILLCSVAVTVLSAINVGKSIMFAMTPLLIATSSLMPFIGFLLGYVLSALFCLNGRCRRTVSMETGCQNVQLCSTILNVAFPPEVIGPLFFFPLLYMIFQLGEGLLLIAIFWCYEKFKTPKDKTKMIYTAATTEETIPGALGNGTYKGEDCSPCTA
Protocol: as §1, §2, §3, §4

T1 sequence (O14842 whole entry): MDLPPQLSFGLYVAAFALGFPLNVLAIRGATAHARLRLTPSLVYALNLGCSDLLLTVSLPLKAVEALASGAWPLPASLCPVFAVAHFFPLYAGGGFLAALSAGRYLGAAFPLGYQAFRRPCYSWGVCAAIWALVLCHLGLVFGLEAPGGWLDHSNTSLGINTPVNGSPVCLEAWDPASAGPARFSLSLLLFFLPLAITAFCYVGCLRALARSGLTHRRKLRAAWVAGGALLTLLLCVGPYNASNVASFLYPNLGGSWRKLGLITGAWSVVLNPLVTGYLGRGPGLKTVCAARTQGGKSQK

| Structure (SMILES) | % PTAK-875 (human GPR40 receptor) | MIN6Insulin @10 uM [1] | IC50 (OAT2v1) [µM] | IC50 (OATP1B3) [µM] | IC50 (NTCP) [µM] |
| --- | --- | --- | --- | --- | --- |
| Cc1cc(OCCCS(C)(=O)=O)cc(C)c1-c1cccc(COc2ccc3c(c2)OC[C@H]3CC(=O)O)c1 [Example R1, 2[(3S)-6-({3-[4-(3-methanesulfonylpropoxy)-2,6-dimethylphenyl]-phenyl}methoxy)-2,3-dihydro-1-benzofuran-3-yl]acetic acid, reference compound] | B (81-120% PTAK-875) | 1.336 | 62.8 | 3.44 | 53.1 |
| CC#C[C@@H](CC(=O)O)c1ccc(OCC(C)=C(C)C)cc1 [Example S1, (3S)-3-{4-[(2,3-dimethylbut-2-en-1-yl)oxy]phenyl}hex-4-ynoic acid calcium salt] |  |  | > 300 | 42.9 | 46.8 |

Source: patent US11964938B2, “3-phenyl-4-hexynoic acid derivatives as GPR40 agonists” (CELON PHARMA S.A., priority 2018, dated 2024)
